Reference: ChEMBL document CHEMBL3885881, “DrugMatrix”
Several values for one entry are separate records, joined by “and”; a condition that tells them apart may be missing. Identical values can stand only once.

Species: Rattus norvegicus
Experiment: DrugMatrix - Regimen: Daily Repeat
Type: toxicity, organism-based, Sprague-Dawley
Set-up: regimen Daily Repeat, gender Male, age 6-8 weeks
Conditions: in vivo, po, 0 mg/kg, route oral GAVAGE, dose level Control, vehicle .5 % CMC; for BASOPHIL / EOSINOPHIL / ERYTHROCYTE COUNT / HEMATOCRIT / HEMOGLOBIN / LEUKOCYTE COUNT / LYMPHOCYTE / MEAN CORPUSCULAR HEMOGLOBIN / MEAN CORPUSCULAR HEMOGLOBIN CONCENTRATION / MEAN CORPUSCULAR VOLUME / MONOCYTE / NEUTROPHIL / PLATELET COUNT / ABSOLUTE BASOPHIL / ABSOLUTE EOSINOPHIL / ABSOLUTE LYMPHOCYTE / ABSOLUTE MONOCYTE / ABSOLUTE SEGMENTED NEUTROPHIL: tissue Blood
[1] = 72 h, tissue Plasma, time 3 day
[2] = 120 h, tissue Plasma, time 5 day
[3] = 2184 h, tissue Plasma, time 91 day

`O=c1cc(-c2ccccc2)oc2ccc3ccccc3c12` [BETA-NAPHTHOFLAVONE] was tested, and the BASOPHIL (72 h, time 3 day) was 0.52%, the EOSINOPHIL (72 h, time 3 day) was 0.48% and the “ERYTHROCYTE COUNT” value (72 h, time 3 day) was 6.68 x10E6/uL. For the same compound, the HEMATOCRIT (72 h, time 3 day) was 43.07%, the HEMOGLOBIN (72 h, time 3 day) was 13.48 G/DL and the “LEUKOCYTE COUNT” value (72 h, time 3 day) was 11.41 x10E3/uL. For the same compound, the LYMPHOCYTE (72 h, time 3 day) was 80.78%, the “MEAN CORPUSCULAR HEMOGLOBIN” value (72 h, time 3 day) was 20.2 pg and the “MEAN CORPUSCULAR HEMOGLOBIN CONCENTRATION” value (72 h, time 3 day) was 31.32 G/DL. For the same compound, the “MEAN CORPUSCULAR VOLUME” value (72 h, time 3 day) was 64.45 fL, the MONOCYTE (72 h, time 3 day) was 2.23% and the NEUTROPHIL (72 h, time 3 day) was 14.73%. For the same compound, the “PLATELET COUNT” value (72 h, time 3 day) was 1225.83 x10E3/uL, the “ALANINE AMINOTRANSFERASE” value [1] was 44.5 u/L and the ALBUMIN [1] was 3.62 G/DL. For the same compound, the “ALKALINE PHOSPHATASE” value [1] was 404.5 u/L, the “ASPARTATE AMINOTRANSFERASE” value [1] was 71.67 u/L and the “BLOOD UREA NITROGEN” value [1] was 15 mg/dL. The CHLORIDE [1] was 103 MEQ/L, the CHOLESTEROL [1] was 96.83 mg/dL and the “CREATINE PHOSPHOKINASE” value [1] was 236 u/L. It also gave a CREATININE [1] of 0.43 mg/dL, a GLUCOSE [1] of 186.83 mg/dL and a PHOSPHORUS [1] of 12.67 mg/dL. For the same compound, the POTASSIUM [1] was 7.1 MEQ/L, the SODIUM [1] was 147.33 MEQ/L and the “TOTAL BILIRUBIN” value [1] was 0.52 mg/dL. The “TOTAL PROTEIN” value [1] was 6.18 G/DL, the ABSOLUTE BASOPHIL (120 h, time 5 day) was 92 cells/µL and the ABSOLUTE EOSINOPHIL (120 h, time 5 day) was 52 cells/µL. For the same compound, the ABSOLUTE LYMPHOCYTE (120 h, time 5 day) was 6560 cells/µL, the ABSOLUTE MONOCYTE (120 h, time 5 day) was 160 cells/µL and the ABSOLUTE SEGMENTED NEUTROPHIL (120 h, time 5 day) was 1130 cells/µL. For the same compound, the BASOPHIL (120 h, time 5 day) was 1.14% and 0.92%, the EOSINOPHIL (120 h, time 5 day) was 0.68% and 0.43% and the “ERYTHROCYTE COUNT” value (120 h, time 5 day) was 7.51 x10E6/uL and 7.03 x10E6/uL. The HEMATOCRIT (120 h, time 5 day) was 46.04% and 46.55%, the HEMOGLOBIN (120 h, time 5 day) was 15.62 G/DL and 14.32 G/DL and the “LEUKOCYTE COUNT” value (120 h, time 5 day) was 8.03 x10E3/uL and 12.22 x10E3/uL. The LYMPHOCYTE (120 h, time 5 day) was 81.54% and 82.65%, the “MEAN CORPUSCULAR HEMOGLOBIN” value (120 h, time 5 day) was 20.84 pg and 20.35 pg and the “MEAN CORPUSCULAR HEMOGLOBIN CONCENTRATION” value (120 h, time 5 day) was 33.94 G/DL and 30.77 G/DL. For the same compound, the “MEAN CORPUSCULAR VOLUME” value (120 h, time 5 day) was 61.42 fL and 66.28 fL, the MONOCYTE (120 h, time 5 day) was 2% and 2.28% and the NEUTROPHIL (120 h, time 5 day) was 14.24% and 12.73%. For the same compound, the “PLATELET COUNT” value (120 h, time 5 day) was 1427.2 x10E3/uL and 1268.67 x10E3/uL, the “ALANINE AMINOTRANSFERASE” value [2] was 35.6 u/L and 44.5 u/L and the ALBUMIN [2] was 3.64 G/DL and 3.73 G/DL. For the same compound, the “ALKALINE PHOSPHATASE” value [2] was 233 u/L and 340.83 u/L, the “ASPARTATE AMINOTRANSFERASE” value [2] was 81 u/L and 66.5 u/L and the “BLOOD UREA NITROGEN” value [2] was 12 mg/dL and 13.33 mg/dL. The CHLORIDE [2] was 109.4 MEQ/L and 102.17 MEQ/L, the CHOLESTEROL [2] was 47.6 mg/dL and 82.17 mg/dL and the “CREATINE PHOSPHOKINASE” value [2] was 183.2 u/L and 146.67 u/L. The CREATININE [2] was 0.4 mg/dL and 0.35 mg/dL, the GLUCOSE [2] was 134.6 mg/dL and 186.17 mg/dL and the “LACTATE DEHYDROGENASE” value [2] was 89.4 u/L. For the same compound, the LIPASE [2] was 17.2 u/L, the PHOSPHORUS [2] was 13.02 mg/dL and 11.83 mg/dL and the POTASSIUM [2] was 7 MEQ/L and 6.47 MEQ/L. The SODIUM [2] was 149.6 MEQ/L and 148.83 MEQ/L, the “TOTAL PROTEIN” value [2] was 6.06 G/DL and 6.27 G/DL and the “URIC ACID” value [2] was 1.04 mg/dL. The ABSOLUTE BASOPHIL (2184 h, time 91 day) was 130 cells/µL, the ABSOLUTE EOSINOPHIL (2184 h, time 91 day) was 70 cells/µL and the ABSOLUTE LYMPHOCYTE (2184 h, time 91 day) was 8670 cells/µL. For the same compound, the ABSOLUTE MONOCYTE (2184 h, time 91 day) was 160 cells/µL, the ABSOLUTE SEGMENTED NEUTROPHIL (2184 h, time 91 day) was 1530 cells/µL and the BASOPHIL (2184 h, time 91 day) was 1.13%. For the same compound, the EOSINOPHIL (2184 h, time 91 day) was 0.66%, the “ERYTHROCYTE COUNT” value (2184 h, time 91 day) was 9.13 x10E6/uL and the HEMATOCRIT (2184 h, time 91 day) was 48.47%. For the same compound, the HEMOGLOBIN (2184 h, time 91 day) was 16.56 G/DL, the “LEUKOCYTE COUNT” value (2184 h, time 91 day) was 10.5 x10E3/uL and the LYMPHOCYTE (2184 h, time 91 day) was 81.63%. The “MEAN CORPUSCULAR HEMOGLOBIN” value (2184 h, time 91 day) was 18.16 pg, the “MEAN CORPUSCULAR HEMOGLOBIN CONCENTRATION” value (2184 h, time 91 day) was 34.14 G/DL and the “MEAN CORPUSCULAR VOLUME” value (2184 h, time 91 day) was 53.14 fL. For the same compound, the MONOCYTE (2184 h, time 91 day) was 1.53%, the NEUTROPHIL (2184 h, time 91 day) was 14.71% and the “PLATELET COUNT” value (2184 h, time 91 day) was 1280.22 x10E3/uL. The “ALANINE AMINOTRANSFERASE” value [3] was 28.89 u/L, the ALBUMIN [3] was 3.69 G/DL and the “ALKALINE PHOSPHATASE” value [3] was 101.11 u/L. For the same compound, the “ASPARTATE AMINOTRANSFERASE” value [3] was 70.67 u/L, the “BLOOD UREA NITROGEN” value [3] was 16.78 mg/dL and the CHLORIDE [3] was 104.56 MEQ/L. The CHOLESTEROL [3] was 58.78 mg/dL.
